Laboratory results as given in US20230143604A1, “QW DOSING OF GIP RECEPTOR AGONIST PEPTIDE COMPOUNDS AND USES THEREOF” (TAKEDA PHARMACEUTICAL COMPANY LIMITED, priority 2020, published 2023).
Starred links: 1 amine or outer side, 2 acyl side, 3 side chain; linkers in the order of their positions; H or OH if unused. Non-standard residues stand in square brackets, D forms with d. Residues, ends and D or L forms follow the SMILES beside them. Groups on a side chain read outwards from the residue. *: point of attachment. C18 diacid = O=C(O)CCCCCCCCCCCCCCCCC(=O)*; γGlu = O=C(O)[C@H](CCC(=O)[*:2])N[*:1]; NMeY = CN[C@@H](Cc1ccc(O)cc1)C(=O)O; AEEA = NCCOCCOCC(=O)O; Aib = CC(C)(N)C(=O)O

Assay: physchem
Conditions: pH 7.4, aqueous buffer
Procedure, shortened: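 Solubility at pH 7.4 determined by stepwise addition of 200 mM phosphate buffer in 100 μL increments to 3 mg peptide, mixing briefly each time, until no insoluble material remained, then measured by liquid chromatography.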

SMILES | solubility [mg/mL]
CC[C@H](C)[C@H](NC(=O)[C@H](CO)NC(=O)[C@H](Cc1ccc(O)cc1)NC(=O)[C@H](CC(=O)O)NC(=O)[C@H](CO)NC(=O)[C@@H](NC(=O)[C@H](Cc1ccccc1)NC(=O)[C@@H](NC(=O)CNC(=O)[C@H](CCC(=O)O)NC(=O)C(C)(C)NC(=O)[C@H](Cc1ccc(O)cc1)NC)[C@@H](C)O)[C@@H](C)CC)C(=O)N[C@@H](C)C(=O)N[C@@H](CCCCNC(=O)CNC(=O)CNC(=O)CNC(=O)CNC(=O)CNC(=O)CCCCCCCCCCCCCCCCC(=O)O)C(=O)N[C@@H](CC(=O)O)C(=O)N[C@@H](CCCCN)C(=O)NC(C)(C)C(=O)N[C@@H](Cc1c[nH]cn1)C(=O)N[C@@H](CCC(N)=O)C(=O)NC(C)(C)C(=O)N[C@@H](CC(N)=O)C(=O)N[C@@H](Cc1ccccc1)C(=O)N[C@H](C(=O)N[C@@H](CC(N)=O)C(=O)N[C@@H](Cc1c[nH]c2ccccc12)C(=O)N[C@@H](CC(C)C)C(=O)N[C@@H](CC(C)C)C(=O)N[C@@H](C)C(=O)N[C@@H](CCC(N)=O)C(=O)N[C@@H](CCCCN)C(=O)NCC(=O)N[C@@H](CCCCN)C(=O)N[C@@H](CCCCN)C(=O)N[C@@H](CC(N)=O)C(=O)N[C@@H](CC(N)=O)C(=O)N[C@@H](Cc1c[nH]c2ccccc12)C(=O)N[C@@H](CCCCN)C(=O)N[C@@H](Cc1c[nH]cn1)C(=O)N[C@@H](CC(N)=O)C(N)=O)C(C)C [Compound 281] | < 15
CC[C@H](C)[C@H](NC(=O)[C@H](Cc1ccccc1)NC(=O)[C@@H](NC(=O)CNC(=O)[C@H](CCC(=O)O)NC(=O)C(C)(C)NC(=O)[C@H](Cc1ccc(O)cc1)NC)[C@@H](C)O)C(=O)N[C@@H](CO)C(=O)N[C@@H](CC(=O)O)C(=O)N[C@@H](Cc1ccc(O)cc1)C(=O)N[C@@H](CO)C(=O)N[C@H](C(=O)NC(C)(C)C(=O)N[C@@H](CC(C)C)C(=O)N[C@@H](CC(=O)O)C(=O)N[C@@H](CCCNC(=N)N)C(=O)N[C@@H](CCCCNC(=O)CNC(=O)CNC(=O)CNC(=O)CNC(=O)CNC(=O)CCCCCCCCCCCCCCCCC(=O)O)C(=O)N[C@@H](C)C(=O)N[C@@H](CCC(N)=O)C(=O)NC(C)(C)C(=O)N[C@@H](CC(=O)O)C(=O)N[C@@H](Cc1ccccc1)C(=O)N[C@H](C(=O)N[C@@H](CC(N)=O)C(=O)N[C@@H](Cc1c[nH]c2ccccc12)C(=O)N[C@@H](CC(C)C)C(=O)N[C@@H](CC(C)C)C(=O)N[C@@H](C)C(=O)N[C@@H](CCC(N)=O)C(=O)N[C@@H](CCCNC(=N)N)C(=O)NCC(=O)O)C(C)C)[C@@H](C)CC [Compound 284] | < 15
CC[C@H](C)[C@H](NC(=O)[C@H](CCCNC(=N)N)NC(=O)[C@H](CC(=O)O)NC(=O)[C@H](CCCCNC(=O)CNC(=O)CNC(=O)CNC(=O)CNC(=O)CNC(=O)CCCCCCCCCCCCCCCCC(=O)O)NC(=O)[C@H](C)NC(=O)[C@@H](NC(=O)[C@H](CO)NC(=O)[C@H](Cc1ccc(O)cc1)NC(=O)[C@H](CC(=O)O)NC(=O)[C@H](CO)NC(=O)[C@@H](NC(=O)[C@H](Cc1ccccc1)NC(=O)[C@@H](NC(=O)CNC(=O)[C@H](CCC(=O)O)NC(=O)C(C)(C)NC(=O)[C@H](Cc1ccc(O)cc1)NC)[C@@H](C)O)[C@@H](C)CC)[C@@H](C)CC)C(=O)N[C@@H](C)C(=O)N[C@@H](CCC(N)=O)C(=O)N[C@@H](CCC(N)=O)C(=O)N[C@@H](CC(=O)O)C(=O)N[C@@H](Cc1ccccc1)C(=O)N[C@H](C(=O)N[C@@H](CC(N)=O)C(=O)N[C@@H](Cc1c[nH]c2ccccc12)C(=O)N[C@@H](CC(C)C)C(=O)N[C@@H](CC(C)C)C(=O)N[C@@H](C)C(=O)N[C@@H](CCC(N)=O)C(=O)N[C@@H](CCCNC(=N)N)C(=O)N1CCC[C@H]1C(=O)N[C@@H](CO)C(=O)N[C@@H](CO)C(=O)NCC(=O)O)C(C)C [Compound 285] | < 6
CC[C@H](C)[C@H](NC(=O)[C@H](CCCNC(=N)N)NC(=O)[C@H](CC(=O)O)NC(=O)[C@H](CC(C)C)NC(=O)[C@H](C)NC(=O)[C@@H](NC(=O)[C@H](CO)NC(=O)[C@H](Cc1ccc(O)cc1)NC(=O)[C@H](CC(=O)O)NC(=O)[C@H](CO)NC(=O)[C@@H](NC(=O)[C@H](Cc1ccccc1)NC(=O)[C@@H](NC(=O)CNC(=O)[C@H](CCC(=O)O)NC(=O)C(C)(C)NC(=O)[C@H](Cc1ccc(O)cc1)NC)[C@@H](C)O)[C@@H](C)CC)[C@@H](C)CC)C(=O)N[C@@H](C)C(=O)N[C@@H](CCC(N)=O)C(=O)N[C@@H](CCC(N)=O)C(=O)N[C@@H](CCCCNC(=O)COCCOCCNC(=O)COCCOCCNC(=O)CC[C@H](NC(=O)CC[C@H](NC(=O)CCCCCCCCCCCCCCCCC(=O)O)C(=O)O)C(=O)O)C(=O)N[C@@H](Cc1ccccc1)C(=O)N[C@H](C(=O)N[C@@H](CC(N)=O)C(=O)N[C@@H](Cc1c[nH]c2ccccc12)C(=O)N[C@@H](CC(C)C)C(=O)N[C@@H](CC(C)C)C(=O)N[C@@H](C)C(=O)N[C@@H](CCC(N)=O)C(=O)N[C@@H](CCCNC(=N)N)C(=O)NCC(=O)O)C(C)C [Compound 286] (H-[NMeY][Aib]EGTFISDYSIALDRIAQQK([AEEA-AEEA-γGlu-γGlu-C18 diacid])FVNWLLAQRG-OH) | < 6

Same assay, conditions: pH 7.4, aqueous buffer, pH 7.4 Phosphate Buffer - Solubility, 200 mM Phosphate buffer pH 7.4

SMILES | solubility [mg/mL]
CC[C@H](C)[C@H](NC(=O)[C@H](CO)NC(=O)[C@H](Cc1ccc(O)cc1)NC(=O)[C@H](CC(=O)O)NC(=O)[C@H](CO)NC(=O)[C@@H](NC(=O)[C@H](Cc1ccccc1)NC(=O)[C@@H](NC(=O)CNC(=O)[C@H](CCC(=O)O)NC(=O)C(C)(C)NC(=O)[C@H](Cc1ccc(O)cc1)NC)[C@@H](C)O)[C@@H](C)CC)C(=O)N[C@@H](C)C(=O)N[C@@H](CC(C)C)C(=O)N[C@@H](CO)C(=O)N[C@@H](CCCNC(=N)N)C(=O)N[C@@H](CCCCNC(=O)CNC(=O)CNC(=O)CNC(=O)CNC(=O)CNC(=O)CNC(=O)CCCCCCCCCCCCCCCCC(=O)O)C(=O)N[C@@H](Cc1c[nH]cn1)C(=O)N[C@@H](CCC(N)=O)C(=O)NC(C)(C)C(=O)N[C@@H](CC(N)=O)C(=O)N[C@@H](Cc1ccccc1)C(=O)N[C@H](C(=O)N[C@@H](CC(N)=O)C(=O)N[C@@H](Cc1c[nH]c2ccccc12)C(=O)N[C@@H](CC(C)C)C(=O)N[C@@H](CC(C)C)C(=O)N[C@@H](C)C(=O)N[C@@H](CCC(N)=O)C(=O)N[C@@H](CCCNC(=N)N)C(=O)N1CCC[C@H]1C(=O)N[C@@H](CO)C(=O)N[C@@H](CO)C(=O)NCC(=O)N[C@@H](C)C(=O)N1CCC[C@H]1C(=O)N1CCC[C@H]1C(=O)N1CCC[C@H]1C(=O)N[C@@H](CO)C(=O)N[C@@H](CCCNC(=N)N)C(N)=O)C(C)C [Compound 279] | < 15
CC[C@H](C)[C@H](NC(=O)[C@H](CO)NC(=O)[C@H](Cc1ccc(O)cc1)NC(=O)[C@H](CC(=O)O)NC(=O)[C@H](CO)NC(=O)[C@@H](NC(=O)[C@H](Cc1ccccc1)NC(=O)[C@@H](NC(=O)CNC(=O)[C@H](CCC(=O)O)NC(=O)C(C)(C)NC(=O)[C@H](Cc1ccc(O)cc1)NC)[C@@H](C)O)[C@@H](C)CC)C(=O)N[C@@H](C)C(=O)N[C@@H](CC(C)C)C(=O)N[C@@H](CCCCN)C(=O)N[C@@H](CCCNC(=N)N)C(=O)N[C@@H](CCCCNC(=O)CNC(=O)CNC(=O)CNC(=O)CNC(=O)CNC(=O)CNC(=O)CCCCCCCCCCCCCCCCC(=O)O)C(=O)N[C@@H](Cc1c[nH]cn1)C(=O)N[C@@H](CCC(N)=O)C(=O)NC(C)(C)C(=O)N[C@@H](CC(N)=O)C(=O)N[C@@H](Cc1ccccc1)C(=O)N[C@H](C(=O)N[C@@H](CC(N)=O)C(=O)N[C@@H](Cc1c[nH]c2ccccc12)C(=O)N[C@@H](CC(C)C)C(=O)N[C@@H](CC(C)C)C(=O)N[C@@H](C)C(=O)N[C@@H](CCC(N)=O)C(=O)N[C@@H](CCCNC(=N)N)C(=O)N1CCC[C@H]1C(=O)N[C@@H](CO)C(=O)N[C@@H](CO)C(=O)NCC(=O)N[C@@H](C)C(=O)N1CCC[C@H]1C(=O)N1CCC[C@H]1C(=O)N1CCC[C@H]1C(=O)N[C@@H](CO)C(=O)N[C@@H](CCCNC(=N)N)C(N)=O)C(C)C [Compound 280] | < 15
